Data published in ChEMBL document CHEMBL1201862, “PubChem BioAssay data set” (2004).
Activity calls are given as the source filed them.

Assays:
[1] = molecular target: T1, Heat shock factor protein 1 (Mus musculus, UniProt P38532); experiment: decrease of HSF1-responsive luciferase luminescence – cell-based, NIH3T3, dose retest, confirmation (AID 2382); type: functional;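 also: NIH3T3 fibroblasts with HSF1-driven luciferase reporter stressed by proteasome inhibitor MG132; luminescence from HSF1-driven luciferase expression after 8 hours of MG132 stress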
T1 sequence (P38532 whole entry): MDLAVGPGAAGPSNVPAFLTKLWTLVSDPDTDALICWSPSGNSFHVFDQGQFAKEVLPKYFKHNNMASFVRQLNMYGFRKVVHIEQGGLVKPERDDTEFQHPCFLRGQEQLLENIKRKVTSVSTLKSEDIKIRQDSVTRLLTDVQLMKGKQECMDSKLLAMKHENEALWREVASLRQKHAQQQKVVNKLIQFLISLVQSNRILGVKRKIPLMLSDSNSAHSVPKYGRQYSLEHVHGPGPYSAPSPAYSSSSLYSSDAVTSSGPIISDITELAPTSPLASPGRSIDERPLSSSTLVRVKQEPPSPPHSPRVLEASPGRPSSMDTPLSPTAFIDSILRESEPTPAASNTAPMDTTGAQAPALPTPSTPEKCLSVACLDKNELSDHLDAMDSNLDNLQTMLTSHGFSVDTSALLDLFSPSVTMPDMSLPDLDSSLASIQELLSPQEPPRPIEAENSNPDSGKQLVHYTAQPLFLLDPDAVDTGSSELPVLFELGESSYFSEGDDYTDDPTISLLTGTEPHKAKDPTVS

[2] = molecular target: Trypsin (Sus scrofa, UniProt P00761); experiment: trypsin protease activity blockade – biochemical, quenched peptide fluorescence, cherry-pick, selectivity assay for Rce1 protease inhibitor project, dose response (AID 488789)
[3] = molecular target: T2, CAAX prenyl protease 2 (Homo sapiens, UniProt Q9Y256); experiment: inhibition of Ras-converting CAAX protease Rce1 – biochemical, yeast membranes, quenched-peptide fluorescence, cherry-pick, dose response (AID 588849)
T2 sequence (Q9Y256 whole entry): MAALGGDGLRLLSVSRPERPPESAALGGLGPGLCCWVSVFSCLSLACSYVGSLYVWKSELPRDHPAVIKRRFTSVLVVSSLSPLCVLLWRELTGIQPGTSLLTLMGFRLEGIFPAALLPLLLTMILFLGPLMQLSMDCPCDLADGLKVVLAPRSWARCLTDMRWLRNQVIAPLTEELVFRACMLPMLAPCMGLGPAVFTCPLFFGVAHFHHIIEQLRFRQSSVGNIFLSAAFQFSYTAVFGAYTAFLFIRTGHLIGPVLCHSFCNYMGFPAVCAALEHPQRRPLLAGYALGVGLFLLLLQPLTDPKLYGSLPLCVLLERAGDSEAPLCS

[4] = system: HEK293; experiment: EBV LMP1 TES2 canonical NF-kB signalling blockers – cell-based, HEK293, luciferase, cherry-pick, dose response (AID 588343); type: functional; details: Homo sapiens
[5] = system: INS1; experiment: INS-1E survival protection against cytokine death – cell-based, luminescence, retest, dose response (AID 449756); type: functional; details: Rattus norvegicus;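 also: cell death triggered by IL-1 beta plus TNF-alpha plus IFN-gamma mixture; protective hits raise ATP signal compared with cytokine alone wells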
[6] = molecular target: T3, CAAX prenyl protease 2 (Saccharomyces cerevisiae S288c, UniProt Q03530); type: biochemical
T3 sequence (Q03530 whole entry): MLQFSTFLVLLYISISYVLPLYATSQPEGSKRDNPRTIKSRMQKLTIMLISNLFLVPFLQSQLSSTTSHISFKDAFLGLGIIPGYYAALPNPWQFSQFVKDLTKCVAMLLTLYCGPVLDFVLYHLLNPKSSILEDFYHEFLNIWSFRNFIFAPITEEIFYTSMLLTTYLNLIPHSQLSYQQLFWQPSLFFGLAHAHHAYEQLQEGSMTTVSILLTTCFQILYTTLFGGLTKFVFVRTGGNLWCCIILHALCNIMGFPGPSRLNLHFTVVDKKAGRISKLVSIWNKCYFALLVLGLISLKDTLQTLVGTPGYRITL

[7] = NIH3T3 cell viability loss – ATP luminescence, mouse fibroblasts, counter-screen, dose response (AID 2010); type: functional, cell-based;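 also: cells exposed to compound for about 90 hours before reading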
[8] = Trypanosoma cruzi growth suppression in host cells – NIH3T3 host cells, beta-gal luminescence, confirmation (AID 2044); type: functional, cell-based;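 also: intracellular parasites grown in NIH/3T3 mouse fibroblasts as host cells; luminescent beta-galactosidase reporter signal from transgenic T. cruzi replicating inside host cells; inhibitors lower the luminescence signal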
[9] = molecular target: DNA dC->dU-editing enzyme APOBEC-3G (Homo sapiens, UniProt Q9HC16); type: functional;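 also: Dose-response counterscreen measuring inhibition of APOBEC3G DNA deaminase activity, run while confirming APOBEC3A inhibitors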
[10] = molecular target: T4, Carboxy-terminal domain RNA polymerase II polypeptide A small phosphatase 1 (Homo sapiens, UniProt Q9GZU7); experiment: CTDSP1 inhibitors, concentration-response, biochemical, absorbance readout, ultra-high-throughput screen actives (AID 540297); type: functional
T4 sequence (Q9GZU7 whole entry): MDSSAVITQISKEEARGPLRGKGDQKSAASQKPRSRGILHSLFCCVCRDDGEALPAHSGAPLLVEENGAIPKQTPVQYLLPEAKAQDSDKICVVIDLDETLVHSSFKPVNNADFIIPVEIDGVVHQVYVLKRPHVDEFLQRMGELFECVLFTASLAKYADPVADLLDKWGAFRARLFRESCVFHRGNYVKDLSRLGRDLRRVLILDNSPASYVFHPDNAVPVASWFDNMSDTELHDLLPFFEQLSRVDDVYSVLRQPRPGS

[11] = molecular target: DNA dC->dU-editing enzyme APOBEC-3A (Homo sapiens, UniProt P31941); experiment: Dose Response confirmation of small molecule APOBEC3A DNA Deaminase Inhibitors via a fluorescence-based single-stranded DNA deaminase assay. [Related pubchem assays (depositor defined):AID493011, AID493024]; type: functional
Chain of DNA dC->dU-editing enzyme APOBEC-3A (P31941 whole entry): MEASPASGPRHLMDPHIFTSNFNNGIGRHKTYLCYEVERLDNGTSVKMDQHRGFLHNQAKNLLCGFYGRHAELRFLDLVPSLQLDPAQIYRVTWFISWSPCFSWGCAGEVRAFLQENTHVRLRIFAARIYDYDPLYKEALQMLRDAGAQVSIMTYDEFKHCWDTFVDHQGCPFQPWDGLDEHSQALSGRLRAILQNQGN

Chain of Trypsin (P00761 whole entry): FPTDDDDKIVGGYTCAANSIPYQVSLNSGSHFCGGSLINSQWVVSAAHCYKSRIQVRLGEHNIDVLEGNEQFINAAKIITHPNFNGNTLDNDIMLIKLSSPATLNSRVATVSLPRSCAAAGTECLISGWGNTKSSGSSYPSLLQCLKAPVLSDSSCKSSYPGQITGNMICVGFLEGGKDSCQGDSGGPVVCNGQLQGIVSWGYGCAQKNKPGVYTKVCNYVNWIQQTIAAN
Chain of DNA dC->dU-editing enzyme APOBEC-3G (Q9HC16 whole entry, the tested form may be a part): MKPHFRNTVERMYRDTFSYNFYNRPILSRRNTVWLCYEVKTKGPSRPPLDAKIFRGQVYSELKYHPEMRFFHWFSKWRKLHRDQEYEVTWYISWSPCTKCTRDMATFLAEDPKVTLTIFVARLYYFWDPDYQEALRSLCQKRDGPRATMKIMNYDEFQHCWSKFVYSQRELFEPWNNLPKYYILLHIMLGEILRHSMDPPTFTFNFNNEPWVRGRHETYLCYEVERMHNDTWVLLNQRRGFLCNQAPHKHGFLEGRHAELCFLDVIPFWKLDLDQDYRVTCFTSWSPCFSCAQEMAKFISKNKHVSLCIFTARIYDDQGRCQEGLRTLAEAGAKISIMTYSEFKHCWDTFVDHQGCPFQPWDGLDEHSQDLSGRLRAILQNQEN

Structure (SMILES) | AC50 [2] | AC50 [3] | AC50 [6] | further results
COc1ccc(C)c2sc(NC(=O)C3=COCCO3)nc12 | 18.8 µM (active) | 13.4 µM (active) | – | EC50 [1]: > 195 µM (not active)
COc1ccc2nc(-c3ccc(C)cc3)cc(O)c2c1 | – | – | – | AC50 [4]: 2.68 µM (active)
CCC(=O)NC(c1cc(Cl)c2cccnc2c1O)C1CC1 (centres undefined) | – | – | – | AC50 [4]: 10.1 µM (active); AC50 [5]: 1.89 µM (active)
Cc1cccc2[nH]c3c(N4CCC5(CC4)OCCO5)ncnc3c12 | 36.5 µM (active) | – | 13.7 µM (active) | –
Cc1nc(N2CCOCC2)c2c(C)c(C(=O)Nc3ccc(C(F)(F)F)cc3)sc2n1 | – | – | 5.99 µM (active) | EC50 [7]: > 60 µM (not active); EC50 [8]: 0.522 µM (active)
COc1ccc(C2=NN(C(=O)CCC(=O)O)C(c3cccs3)C2)cc1 (centres undefined) | 4.38 µM (active) | 12.6 µM (active) | 9.03 µM (active) | –
C[N+](C)(C)CCCN(Cc1ccc2c(c1)OCO2)C(=O)NC1CCCCC1 | – | – | – | IC50 [9]: 4.17 µM (active); IC50 [10]: 3.12 µM (active); IC50 [11]: 2.43 µM (active)
Cc1nn(-c2ccccc2)c2nc(N)c(C(N)=O)cc12 | 37.9 µM (active) | 21.3 µM (active) | – | –
